# Results reported in US5108996A, “19-nor-3-keto steroids” (Roussel Uclaf, priority 1989, dated 1992).
# Assays:
# [1] = tested on: lipid peroxidation (MDA formation) in rat liver microsomes; test: MDA formation triggered enzymatically by NADPH and carbon tetrachloride in liver microsomes of phenobarbital-pretreated rats (antioxidant activity); type: biochemical; details: NADPH/CCl4
# Experimental: (§1) The antioxidant activity was tested in vitro by the test of formation of malondialdehyde (MDA) which measures lipid peroxidation triggered: either a) non-enzymatically by ferrous sulfate, in 1) brain homogenates, or 2) rat liver microsomes or b) enzymatically by NADPH and carbon tetrachloride in rat liver microsomes.
# 2-MDA formation was measured on liver microsomes of rats pretreated with phenobarbital (80 mg/kg in 3 i.p. injections), prepared as described above. The microsomes were incubated for 15 minutes at 37° C. in 1 ml containing 0.1M pH 7.4 phosphate buffer, 1 mg of microsomal protein, 5 microliters of ethanol containing or not containing the test product and 5 microliters of carbon tetrachloride (5.5 mM final) after the addition of 50 microliters of NADPH solution in the phosphate buffer (1 mM final). The reaction was stopped and the assay was then performed under the conditions described above.
# [2] = tested on: lipid peroxidation (MDA formation) in rat liver microsomes; test: MDA formation triggered non-enzymatically by ferrous sulfate in rat liver microsomes (antioxidant activity); type: biochemical, S-D rat; details: 15 min 37° C
# Experimental: as §1
# 1.2-MDA formation was measured on liver microsomes of S-D rats (200 g)
# prepared from the fraction sedimented at 100,000 G of a liver homogenate
# in a sucrose buffer, of which the fraction remaining insoluble at 100,000
# G in 100 mM sodium pyrophosphate buffer pH 7.4 was used and which was
# homogenized in 100 mM sodium phosphate buffer pH 7.4 containing 20% of
# glycerol and then stored at -80° C.
# The microsomes were incubated for 15 minutes at 37° C. in 1 ml containing 35 mM Tris-HCl buffer/0.1M KCl pH 7.4, 1 mg of microsomal protein, 5 microliters of ethanol containing or not containing the test product and 250 microliters of ascorbate solution in the Tris buffer (0.5 mM final), after the addition of 250 microliters of ferrous sulfate prepared immediately before use in the Tris buffer ([…]). The reaction was stopped by adding 2 ml of a 1M solution of trichloroacetic acid in 0.25M hydrochloric acid containing 0.4% of thiobarbituric acid. The mixture was heated to 85° C. for 25 minutes, cooled and centrifuged for 15 minutes at 3500 rpm, and the OD of the supernatant fraction was then read at 535 nm. The reaction blanks in the absence of Fe^++ were performed at the same time and the percentage inhibition was calculated as above.
# [3] = tested on: lipid peroxidation (MDA formation) in brain homogenates; test: MDA formation triggered non-enzymatically by ferrous sulfate in rat brain homogenates (antioxidant activity); type: biochemical, S-D rat; details: brain homogenate, 60 min 37° C
# Experimental: as §1
# 1.1-MDA formation was measured on 10-fold diluted (V/V) homogenates of brains of S-D (200 g), prepared in Krebs buffer pH 7.4 by the conditions described in J. Biol. Chem. Vol., 262 (1987), p. 10438 to 10440. 1 ml of homogenate was incubated for 60 minutes at 37° C. in the presence of 25 microliters of ethanol or water or a mixture of the two, depending on the product, containing or not containing the test product, after the addition of 25 microliters of ferrous sulfate solution prepared immediately before use in water outgassed with argon ([…]). 0.25 ml of incubated mixture was withdrawn and 1.5 ml of 1% strength phosphoric acid, 0.25 ml of a solution containing 200 microliters of deferoxamine (Desferal®, Ciba Geigy) in water, 10 microliters of butylated hydroxytoluene (BHT) at a concentration of 8.7 mg/ml in ethanol and 0.5 ml of thiobarbituric acid (TBA) at a concentration of 0.6% in water were added. The mixture was heated to 100° C. for 45 minutes and cooled. 4 ml of n-butanol were added and the mixture was centrifuged for 15 minutes at 4000 rpm and the OD of the supernatant fraction was then read at 535 nm. The reaction blanks in the absence of Fe^++ were incubated under the same conditions. The percentage inhibition was calculated as follows: […]
# [4] = tested on: ferric nitrilotriacetate (NTA-Fe+++) intoxication in rats; test: Detoxifying activity in vivo: mortality induced in rats by ferric nitrilotriacetate (NTA-Fe+++) intoxication; design: species or system Wistar male rat; details: 5 mg/kg i.p. 30 minutes before 15 mg/kg of poison (NTA-Fe+++, mg of iron/kg); none alive after 4 hours with poison alone
# Experimental: The detoxifying activity after intoxication associated with lipid peroxidaton was tested for by measurement of the mortality induced in rats by ferric nitrilotriacetate (NTA-Fe^+++) intoxication. A solution of NTA-Fe^+++ complex was prepared immediately before use, suspended in sesame oil and injected intraperitoneally at doses of 5, 10 or 15 mg of iron/kg of body weight into non-fasted Wistar male rats weighing approximately 200 g. The survival rate of rats which received a prior injection of the test product at a dose of 5 mg/kg intraperitoneally, 30 minutes before the injection of 15 mg/kg of poison was determined. Whereas none of the animals treated with the poison alone survived after 4 hours, 20% of the animals pretreated with the product of Example 2 were still alive 15 days later.
# [5] = tested on: arachidonic acid-induced plantar oedema; test: Arachidonic acid-induced plantar oedema (anti-inflammatory activity); type: in vivo, Sprague-Dawley male rat; details: for Change in volume of the foot 1 hour after AA (mean ± s.e.m.): controls 0.58 ± 0.03; for % inhibition: oedema, relative to control
# Experimental: The anti-inflammatory activity was assessed in vivo by measurement of the anti-oedematous activity in the test of arachidonic acid-induced plantar oedema described by Di Martino et al. (Agents and Actions, 1987 21 3/4 303). The experimental animals were Sprague-Dawley strain SPF male rats weighing 150 to 170 g (Iffa Credo).
# This test was performed on groups of 8 male rats weighing 130 to 150 g, fasted for 16 hours. Arachidonic acid was injected under the plantar aponeurosis of one hindfoot at a dose of 0.2 mg in a volume of 0.1 ml. The volume of the foot was measured using a water plethysmometer before and 1 hour after the injection of arachidonic acid. The difference between these two volumes represented the degree of inflammation. The animals were treated with the test products or the vehicle alone at the same time as the injection of arachidonic acid. The test products were administered orally in a volume of 4 ml/kg after being suspended in 0.5% strength methyl cellulose. All the experiments were carried out with dexamethasone administered orally at a dose of 0.5 mg/kg as reference product.
# The results were expressed as a change in volume of the foot 1 hour after the injection of arachidonic acid (AA) in the absence or in the presence of the test product administered at different doses. Statistical interpretation of the results was performed according to Dunnett's test (*p<[…]) or according to the Mann-Whitney test (^o p<0.05-^oo p<0.01). For each dose administered orally, the percentage inhibition of the oedema by the test product was calculated relative to the control.
Compound,percentage of inhibition ([1]; 1 × 10^-5 M),percentage of inhibition ([1]; 1 × 10^-6 M),percentage of inhibition ([1]; 5 × 10^-6 M),percentage of inhibition ([2]; 1 × 10^-5 M),percentage of inhibition ([2]; 1 × 10^-6 M),percentage of inhibition ([2]; 5 × 10^-6 M),percentage of inhibition ([3]; 1 × 10^-4 M),percentage of inhibition ([3]; 1 × 10^-5 M),percentage of inhibition ([3]; 5 × 10^-4 M),animals still alive 15 days later (survival rate) [4] [%],Change in volume of the foot 1 hour after AA (mean ± s.e.m.) ([5]; 1 mg/kg oral) [cm^3],Change in volume of the foot 1 hour after AA (mean ± s.e.m.) ([5]; 4 mg/kg oral) [cm^3],Change in volume of the foot 1 hour after AA (mean ± s.e.m.) ([5]; 20 mg/kg oral) [cm^3],"anti-inflammatory activity ([5]; low doses, oral)",% inhibition ([5]; 1 mg/kg oral) [%],% inhibition ([5]; 4 mg/kg oral) [%],% inhibition ([5]; 20 mg/kg oral) [%],percentage of inhibition ([2]; 1 × 10^-7 M)
"CN(C)c1ccc([C@H]2C[C@@]3(C)[C@@H](CC[C@@]3(O)C#CCN3CCN(c4cc(N5CCCC5)nc(N5CCCC5)n4)CC3)[C@@H]3CCC4=CC(=O)CCC4=C32)cc1 [Example 1, 11β-[4-(dimethylamino)-phenyl]-17α-[3-{4-[2,6-bis(1-pyrrolidinyl)-4-pyrimidinyl]-1-piperazinyl}-1-propynyl]-Δ^4,9-estradiene-17β-ol-3-one]",72 ± 3,14 ± 4,58 ± 5,76 ± 0.8,4 ± 0.6,47,42.6 ± 7.5,9.9 ± 6.4,47.5 ± 8.8,–,–,–,–,–,–,–,–,–
"CN(C)c1ccc([C@H]2C[C@@]3(C)[C@@H](CC[C@@]3(O)C#CCN3CCN(c4cc(N5CCCC5)nc(N5CCCC5)n4)CC3)[C@@H]3CCC4=CC(=O)CCC4=C32)cc1 [Example 2, 11β-[4-(dimethylamino)-phenyl]-17α-[3-{4-[2,6-bis(1-pyrrolidinyl)-4-pyrimidinyl]-1-piperazinyl}-1-propynyl]-Δ^4,9-estradien-17β-ol-3-one methane sulfonate]",91 ± 3,28 ± 3,82 ± 3,98.5,48 ± 1,91,59.6 ± 4.4,16.0 ± 5.0,60.9 ± 3.3,20,–,–,–,–,–,–,–,–
"CCN(CC)c1ccc(N2CCN(CC#C[C@]3(O)CC[C@H]4[C@@H]5CCC6=CC(=O)CCC6=C5[C@@H](c5ccc(N(C)C)cc5)C[C@@]43C)CC2)nc1N(CC)CC [Example 3, 11β-[4-(dimethylamino)-phenyl]-17α-[3-{4-[5,6-bis(diethylamino)-2-pyridyl]-1-piperazinyl}1-propynyl]-Δ^4,9-estradiene-17β-ol-3-one]",97,40 ± 1,88 ± 2,99.9,78.2 ± 0.9,99.5,49.2 ± 2.3,32.6 ± 10.1,59.1 ± 3.2,–,0.48 ± 0.05,0.43 ± 0.06,0.40 ± 0.04,significant anti-inflammatory activity,-17,-27,-31,5.2 ± 1
"CCN(CC)c1ccc(N(CC)CC)c(N2CCN(CC#C[C@]3(O)CC[C@H]4[C@@H]5CCC6=CC(=O)CCC6=C5[C@@H](c5ccc(N(C)C)cc5)C[C@@]43C)CC2)n1 [Example 4, 17α-[3-{4-[3,6-bis(diethylamino)-2-pyridyl]-1]-piperazinyl}-1-propynyl]-11β-[4-(dimethylamino)-phenyl-Δ^4,9-estadiene-17β-ol-3-one]",–,48 ± 3,85 ± 2,99.5,70 ± 2,99.4,58.9 ± 10.9,48.6 ± 6.2,71.8 ± 10.2,–,–,–,–,–,–,–,–,0 ± 2
